Experimental data reported in ChEMBL document CHEMBL1126778, “Adenosine A1 antagonists. 3. Structure-activity relationships on amelioration against scopolamine- or N6-((R)-phenylisopropyl)adenosine-induced cognitive disturbance” (J Med Chem, 1993).

Tests used:
Mus musculus [1] = test: Retention time in (R)-PIA) induced avoidance test (performed in mice) for antagonistic activity after peroral administration of 0.31 mg/kg; type: functional, organism-based; parameters: dose 0.31 mg/kg
Mus musculus [2] = test: Acquisition time in (R)-PIA) induced avoidance test (performed in mice) for antagonistic activity after p.o. administration of 1.25 mg/kg; type: functional; settings: route oral
Rattus norvegicus [3] = test: Retention time in Scopolamine induced avoidance test (performed in rat) for antagonistic activity after peroral administration of 20 mg/kg; type: functional, organism-based; parameters: dose 20 mg/kg
Mus musculus [4] = test: Acquisition time in (R)-PIA) induced avoidance test (performed in mice) for antagonistic activity after peroral administration of 0.08 mg/kg; type: functional; settings: route oral
Rattus norvegicus [5] = test: Retention time in Scopolamine induced avoidance test (performed in rat) for antagonistic activity after peroral administration of 1.25 mg/kg; type: functional, organism-based; parameters: dose 1.25 mg/kg
Mus musculus [6] = test: Acquisition time in (R)-PIA) induced avoidance test (performed in mice) for antagonistic activity after peroral administration of 0.02 mg/kg; settings: route oral
Mus musculus [7] = test: Retention time in (R)-PIA) induced avoidance test (performed in mice) for antagonistic activity after p.o. administration of 1.25 mg/kg; type: functional, organism-based; parameters: dose 1.25 mg/kg
Mus musculus [8] = test: Acquisition time in (R)-PIA) induced avoidance test (performed in mice) for antagonistic activity after peroral administration of 5 mg/kg; type: functional; settings: route oral
Rattus norvegicus [9] = test: Retention time in Scopolamine induced avoidance test (performed in […]) for antagonistic activity after peroral administration of 5 mg/kg; type: functional, organism-based; parameters: dose 5 mg/kg
Rattus norvegicus [10] = test: Retention time in Scopolamine induced avoidance test (performed in rat) for antagonistic activity after p.o. administration of 0.31 mg/kg; type: functional, organism-based; parameters: dose 0.31 mg/kg
Adenosine receptor A1 = biological target: T1, Adenosine receptor A1 (Bos taurus, UniProt P28190); test: Binding affinity towards Adenosine A1 receptor of bovine brain at 10e-5 M with [125I]-N6-aminobenzyladenosine
T1 sequence (P28190 whole entry): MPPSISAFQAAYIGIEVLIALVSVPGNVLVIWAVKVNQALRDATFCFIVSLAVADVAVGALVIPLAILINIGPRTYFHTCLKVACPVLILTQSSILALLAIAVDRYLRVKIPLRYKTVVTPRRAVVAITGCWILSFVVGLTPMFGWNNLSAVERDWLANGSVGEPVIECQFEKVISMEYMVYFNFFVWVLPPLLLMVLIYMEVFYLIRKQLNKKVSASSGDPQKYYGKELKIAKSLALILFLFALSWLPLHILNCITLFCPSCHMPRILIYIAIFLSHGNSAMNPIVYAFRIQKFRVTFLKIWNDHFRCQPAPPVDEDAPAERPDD

Mus musculus [11] = test: Retention time in (R)-PIA) induced avoidance test (performed in mice) for antagonistic activity after peroral administration of 0.08 mg/kg; type: functional, organism-based; parameters: dose 0.08 mg/kg
Rattus norvegicus [12] = test: Acquisition time in Scopolamine induced avoidance test (performed in rat) for antagonistic activity after peroral administration of 20 mg/kg; type: functional; settings: route oral
Rattus norvegicus [13] = test: Acquisition time in Scopolamine induced avoidance test (performed in rat) for antagonistic activity after p.o. administration of 5 mg/kg; type: functional; settings: route oral
Rattus norvegicus [14] = test: Acquisition time in Scopolamine induced avoidance test (performed in rat) for antagonistic activity after p.o. administration of 0.08 mg/kg; type: functional; settings: route oral
Rattus norvegicus [15] = test: Acquisition time in Scopolamine induced avoidance test (performed in rat) for antagonistic activity after p.o. administration of 0.31 mg/kg; type: functional; settings: route oral
Rattus norvegicus [16] = test: Acquisition time in Scopolamine induced avoidance test (performed in rat) for antagonistic activity after peroral administration of 1.25 mg/kg; type: functional; settings: route oral
Mus musculus [17] = test: Acquisition time in (R)-PIA) induced avoidance test (performed in mice) for antagonistic activity after p.o. administration of 0.31 mg/kg; type: functional; settings: route oral
Rattus norvegicus [18] = test: Retention time in Scopolamine induced avoidance test (performed in rat) for antagonistic activity after p.o. administration of 0.08 mg/kg; type: functional, organism-based; parameters: dose 0.08 mg/kg
Adenosine A2 receptor = Adenosine A2 receptor (Homo sapiens, UniProt P29275+P29274); test: Binding affinity towards Adenosine A2 receptor of human platelets with [125I]-N6-aminobenzyladenosine
Mus musculus [19] = test: Retention time in (R)-PIA) induced avoidance test (performed in mice) for antagonistic activity after peroral administration of 5 mg/kg; type: functional, organism-based; parameters: dose 5 mg/kg
Mus musculus [20] = test: Retention time in (R)-PIA) induced avoidance test (performed in mice) for antagonistic activity after peroral administration of 0.02 mg/kg

`CCCn1c(=O)c2nc(C3CCCC3)[nH]c2n(CCc2ccc(NC(=O)C(C)C)cc2)c1=O` showed a Retention time (Mus musculus [1]) of 88.6 s, an Acquisition time (Mus musculus [2]) of 33.3 s and a Retention time (Rattus norvegicus [3]) of 65.4 s. For the same molecule, the Acquisition time (Mus musculus [4]) was 16 s, the Retention time (Rattus norvegicus [5]) was 19.3 s and the Acquisition time (Mus musculus [6]) was 6 s. The Retention time (Mus musculus [7]) was 171 s, the Acquisition time (Mus musculus [8]) was 34.4 s and the Retention time (Rattus norvegicus [9]) was 20 s. It also gave a Retention time (Rattus norvegicus [10]) of 18.6 s, a Ki (Adenosine receptor A1) of 16 nM and a Retention time (Mus musculus [11]) of 32.9 s. It also gave an Acquisition time (Rattus norvegicus [12]) of 9 s, an Acquisition time (Rattus norvegicus [13]) of 11.9 s and an Acquisition time (Rattus norvegicus [14]) of 10.1 s. The Acquisition time (Rattus norvegicus [15]) was 10.1 s, the Acquisition time (Rattus norvegicus [16]) was 6.6 s and the Acquisition time (Mus musculus [17]) was 29.3 s. The Retention time (Rattus norvegicus [18]) was 10.7 s, the Ki (Adenosine A2 receptor) was greater than 100000 nM and the Retention time (Mus musculus [19]) was 94.7 s. For the same molecule, the Retention time (Mus musculus [20]) was 9.4 s.
